Positions of bridges follow the written chain, without caps; N, C: chain ends. Non-standard residues stand in square brackets, D forms with d. Residues, ends and D or L forms follow the SMILES beside them. Tic = O=C(O)[C@@H]1Cc2ccccc2CN1; dTic = O=C(O)[C@H]1Cc2ccccc2CN1
System: X4-tropic HIV-1 NL4-3
Conditions: for IC50: read-out: IC50 NL4-3, P4-CCR5 cells, HIV-1 NL4-3, peptide 2 h before infection, readout three days after infection
From the text: These cells contain the β-galactosidase reporter gene under the control of the HIV-1 promoter. Thus, activation of the β-galactosidase reporter gene allows to measure the efficiency of HIV-1 infection and thus to quantitate the potency of HIV-1 inhibitors (Detheux M. et al., 2000; Journal of Experimental Medicine 192, 1501-1508; Münch et al., 2002; Antimicrobial Agents and Chemotherapy 46, 982-990).
To perform a typical infection assay, P4-CCR5 cells (Charneau et al., 1994; Journal of Molecular Biology 241, 651-662; Charneau et al., Virology. 1994 205, 247-53) were kept in RPMI 1640 medium supplemented with 10 volume % FCS. This cell line coexpresses CD4 and both HIV-1 coreceptors CCR5 and CXCR4 and contains the β-galactosidase gene under the control of the HIV-1 promoter. Virus stocks were generated by the calcium coprecipitation method as described (Detheux et al., J Exp Med. 192:1501-8; 2000), and the p24 antigen levels were quantitated with an HIV p24 ELISA kit obtained through the NIH AIDS Reagent Program. Cells were seeded in flat-bottomed 96-well dishes, cultured overnight, and incubated with the different doses of peptide for 2 h before infection with virus containing 1 ng of p24 antigen in a total volume of […] of medium. After overnight incubation, cells were washed twice and cultivated in fresh culture medium without inhibitory peptide. Three days after infection the cells were lysed, and infectivity was quantitated using the Galacto-Light Plus™ chemiluminescence reporter assay kit (Tropix, Bedford, Mass.) as recommended by the manufacturer. All infections were performed in quintuplicate.

| Molecule | IC50 | increase in anti-HIV activity in comparison to VIRIP (from IC50 against two HIV-1 strains (NL4-3, DTV)) |
| --- | --- | --- |
| CC[C@H](C)[C@H](NC(=O)[C@@H]1CCCN1C(=O)[C@@H](NC(=O)[C@H](CC(=O)O)NC(=O)[C@H](CCC(=O)O)NC(=O)[C@@H](N)CC(C)C)[C@@H](C)CC)C(=O)NCC(=O)N[C@H](C(=O)N1CCC[C@H]1C(=O)N1CCC[C@@H]1C(=O)N[C@@H](CCC(=O)O)C(=O)N[C@H](C(=O)N[C@@H](C)C(=O)N[C@@H](Cc1ccccc1)C(=O)N[C@@H](CC(N)=O)C(=O)N[C@@H](CCCCN)C(=O)N1Cc2ccccc2C[C@H]1C(=O)N[C@@H](Cc1ccccc1)C(=O)N[C@H](C(=O)N[C@@H](Cc1ccccc1)C(=O)O)C(C)C)C(C)C)[C@@H](C)CC [VIR-488, LEDIPIGIPpEVAFNK(L-Tic)FVF] (H-LEDIPIGIP[dP]EVAFNK[Tic]FVF-OH) | 415 nM |  |
| CC[C@H](C)[C@H](NC(=O)[C@H](C)NC(=O)[C@H](CCC(=O)O)NC(=O)[C@@H](N)CC(C)C)C(=O)N1CCC[C@H]1C(=O)N[C@@H](CS)C(=O)N[C@@H](CO)C(=O)N[C@H](C(=O)N1CCC[C@H]1C(=O)N1CCC[C@@H]1C(=O)N[C@@H](CS)C(=O)N[C@H](C(=O)N[C@@H](Cc1ccccc1)C(=O)N[C@@H](Cc1ccccc1)C(=O)NCC(=O)N[C@@H](CCCCN)C(=O)N1CCC[C@H]1C(=O)N[C@@H](Cc1ccccc1)C(=O)N[C@H](C(=O)N[C@@H](Cc1ccccc1)C(=O)O)C(C)C)C(C)C)[C@@H](C)CC [VIR-350, LEAIPCSIPpCVFFGKPFVF] (H-LEAIPCSIP[dP]CVFFGKPFVF-OH) | 198 nM |  |
| CC[C@H](C)[C@H](NC(=O)[C@H](C)NC(=O)[C@H](CCC(=O)O)NC(=O)[C@@H](N)CC(C)C)C(=O)N1CCC[C@H]1C(=O)N[C@@H](CCSC)C(=O)N[C@@H](CO)C(=O)N[C@H](C(=O)N1CCC[C@H]1C(=O)N1CCC[C@@H]1C(=O)N[C@@H](CCC(=O)O)C(=O)N[C@@H](Cc1ccccc1)C(=O)N[C@@H](CC(C)C)C(=O)N[C@@H](Cc1ccccc1)C(=O)NCC(=O)N[C@@H](CCCCN)C(=O)N1CCC[C@H]1C(=O)N[C@@H](C)C(=O)N[C@@H](Cc1ccccc1)C(=O)N[C@H](C(=O)N[C@@H](Cc1ccccc1)C(=O)O)C(C)C)[C@@H](C)CC [VIR-376, LEAIPMSIPpEFLFGKPAFVF] (H-LEAIPMSIP[dP]EFLFGKPAFVF-OH) | 568 nM |  |
| CC[C@H](C)[C@H](NC(=O)[C@H](C)NC(=O)[C@H](CCC(=O)O)NC(=O)[C@@H](N)CC(C)C)C(=O)N1CCC[C@H]1C(=O)N[C@@H](CCSC)C(=O)NCC(=O)N[C@H](C(=O)N1CCC[C@H]1C(=O)N1CCC[C@@H]1C(=O)N[C@@H](CCC(=O)O)C(=O)N[C@H](C(=O)N[C@@H](Cc1ccccc1)C(=O)N[C@@H](Cc1ccccc1)C(=O)NCC(=O)N[C@@H](CCCCN)C(=O)N1CCC[C@H]1C(=O)N[C@@H](Cc1ccccc1)C(=O)N[C@H](C(=O)N[C@@H](Cc1ccccc1)C(=O)O)C(C)C)C(C)C)[C@@H](C)CC [VIR-320, LEAIPMGIPpEVFFGKPFVF] (H-LEAIPMGIP[dP]EVFFGKPFVF-OH) | 277 nM |  |
| CC[C@H](C)[C@H](NC(=O)[C@H](C)NC(=O)[C@H](CCC(=O)O)NC(=O)[C@@H](N)CC(C)C)C(=O)N1CCC[C@H]1C(=O)N[C@@H](CCSC)C(=O)N[C@@H](CO)C(=O)N[C@H](C(=O)N1CCC[C@H]1C(=O)N1CCC[C@@H]1C(=O)N[C@@H](CCC(=O)O)C(=O)N[C@@H](Cc1ccccc1)C(=O)N[C@@H](CC(C)C)C(=O)N[C@@H](Cc1ccccc1)C(=O)NCC(=O)N[C@@H](CCCCN)C(=O)N1CCC[C@H]1C(=O)N[C@@H](Cc1ccccc1)C(=O)N[C@@H](Cc1ccccc1)C(=O)N[C@H](C(=O)N[C@@H](Cc1ccccc1)C(=O)O)C(C)C)[C@@H](C)CC [VIR-380, LEAIPMSIPpEFLFGKPFFVF] (H-LEAIPMSIP[dP]EFLFGKPFFVF-OH) | 540 nM |  |
| CC[C@H](C)[C@H](NC(=O)[C@H](C)NC(=O)[C@H](CCC(=O)O)NC(=O)[C@@H](N)CC(C)C)C(=O)N1CCC[C@H]1C(=O)N[C@H]1CSSC[C@@H](C(=O)N[C@@H](Cc2ccccc2)C(=O)N[C@@H](CC(C)C)C(=O)N[C@@H](Cc2ccccc2)C(=O)NCC(=O)N[C@@H](CCCCN)C(=O)N2CCC[C@H]2C(=O)N[C@@H](Cc2ccccc2)C(=O)N[C@H](C(=O)N[C@@H](Cc2ccccc2)C(=O)O)C(C)C)NC(=O)[C@@H]2CCCN2C(=O)[C@@H]2CCCN2C(=O)[C@H]([C@@H](C)CC)NC(=O)[C@H](CO)NC1=O [VIR-280] (H-LEAIPCSIPPCFLFGKPFVF-OH; disulfide 6-11) |  | 161 fold |
| LEAIPMKIPPEFLFGKPFVF [VIR-590] | 343 nM |  |
| H-LEAIPISIPPELAFAKPFVF-OH [VIR-286] | 559 nM |  |
| CC[C@H](C)[C@H](NC(=O)[C@@H]1CCCN1C(=O)[C@@H](NC(=O)[C@H](C)NC(=O)[C@H](CCC(=O)O)NC(=O)[C@@H](N)CC(C)C)[C@@H](C)CC)C(=O)N[C@@H](CO)C(=O)N[C@H](C(=O)N1CCC[C@H]1C(=O)N1CCC[C@@H]1C(=O)N[C@@H](CCC(=O)O)C(=O)N[C@H](C(=O)N[C@@H](Cc1ccccc1)C(=O)N[C@@H](Cc1ccccc1)C(=O)NCC(=O)N[C@@H](CCCCN)C(=O)N1CCC[C@H]1C(=O)N[C@@H](Cc1ccccc1)C(=O)N[C@H](C(=O)N[C@@H](Cc1ccccc1)C(=O)O)C(C)C)C(C)C)[C@@H](C)CC [VIR-290, LEAIPISIPpEVFFGKPFVF] (H-LEAIPISIP[dP]EVFFGKPFVF-OH) | 562 nM |  |
| CC[C@H](C)[C@H](NC(=O)[C@H](C)NC(=O)[C@H](CCC(=O)O)NC(=O)[C@@H](N)CC(C)C)C(=O)N1CCC[C@H]1C(=O)N[C@H]1CSSC[C@@H](C(=O)N[C@@H](CC(C)C)C(=O)N[C@@H](C)C(=O)N[C@@H](Cc2ccccc2)C(=O)N[C@@H](C)C(=O)N[C@@H](CCCCN)C(=O)N2CCC[C@H]2C(=O)N[C@@H](Cc2ccccc2)C(=O)N[C@H](C(=O)N[C@@H](Cc2ccccc2)C(=O)O)C(C)C)NC(=O)[C@@H]2CCCN2C(=O)[C@@H]2CCCN2C(=O)[C@H]([C@@H](C)CC)NC(=O)[C@H](CO)NC1=O [VIR-346] (H-LEAIPCSIPPCLAFAKPFVF-OH; disulfide 6-11) | 541 nM |  |
| CC[C@H](C)[C@H](NC(=O)[C@H](C)NC(=O)[C@H](CCC(=O)O)NC(=O)[C@@H](N)CC(C)C)C(=O)N1CCC[C@H]1C(=O)N[C@@H](CCSC)C(=O)N[C@@H](CO)C(=O)N[C@@H](C)C(=O)N1CCC[C@H]1C(=O)N1CCC[C@@H]1C(=O)N[C@@H](CCC(=O)O)C(=O)N[C@@H](Cc1ccccc1)C(=O)N[C@@H](CC(C)C)C(=O)N[C@@H](Cc1ccccc1)C(=O)NCC(=O)N[C@@H](CCCCN)C(=O)N1CCC[C@H]1C(=O)N[C@@H](Cc1ccccc1)C(=O)N[C@H](C(=O)N[C@@H](Cc1ccccc1)C(=O)O)C(C)C [VIR-396, LEAIPMSAPpEFLFGKPFVF] (H-LEAIPMSAP[dP]EFLFGKPFVF-OH) | 628 nM |  |
| CC[C@H](C)[C@H](NC(=O)[C@H](C)NC(=O)[C@H](CCC(=O)O)NC(=O)[C@@H](N)CC(C)C)C(=O)N1CCC[C@H]1C(=O)N[C@@H](CCSC)C(=O)N[C@@H](CO)C(=O)N[C@H](C(=O)N1CCC[C@H]1C(=O)N1CCC[C@@H]1C(=O)N[C@@H](CCC(=O)O)C(=O)N[C@@H](Cc1ccccc1)C(=O)N[C@@H](CC(C)C)C(=O)N[C@@H](Cc1ccccc1)C(=O)NCC(=O)N[C@@H](CCCCN)C(=O)N1CCC[C@H]1C(=O)NCC(=O)N[C@@H](Cc1ccccc1)C(=O)N[C@H](C(=O)N[C@@H](Cc1ccccc1)C(=O)O)C(C)C)[C@@H](C)CC [VIR-377, LEAIPMSIPpEFLFGKPGFVF] (H-LEAIPMSIP[dP]EFLFGKPGFVF-OH) | 487 nM |  |
| CC[C@H](C)[C@H](NC(=O)[C@@H]1CCCN1C(=O)[C@@H](NC(=O)[C@H](C)NC(=O)[C@H](CCC(=O)O)NC(=O)[C@@H](N)CC(C)C)[C@@H](C)CC)C(=O)N[C@@H](CO)C(=O)N[C@H](C(=O)N1CCC[C@H]1C(=O)N1CCC[C@@H]1C(=O)N[C@@H](CCC(=O)O)C(=O)N[C@H](C(=O)N1Cc2ccccc2C[C@@H]1C(=O)N[C@@H](Cc1ccccc1)C(=O)N[C@@H](CC(N)=O)C(=O)N[C@@H](CCCCN)C(=O)N1CCC[C@H]1C(=O)N[C@@H](Cc1ccccc1)C(=O)N[C@H](C(=O)N[C@@H](Cc1ccccc1)C(=O)O)C(C)C)C(C)C)[C@@H](C)CC [VIR-445, LEAIPISIPpEV(D-Tic)FNKPFVF] (H-LEAIPISIP[dP]EV[dTic]FNKPFVF-OH) | 224 nM |  |
| CC[C@H](C)[C@H](NC(=O)[C@H](C)NC(=O)[C@H](CCC(=O)O)NC(=O)[C@@H](N)CC(C)C)C(=O)N1CCC[C@H]1C(=O)N[C@@H](CCSC)C(=O)N[C@@H](CO)C(=O)N[C@@H](Cc1ccccc1)C(=O)N1CCC[C@H]1C(=O)N1CCC[C@@H]1C(=O)N[C@@H](CCC(=O)O)C(=O)N[C@@H](Cc1ccccc1)C(=O)N[C@@H](CC(C)C)C(=O)N[C@@H](Cc1ccccc1)C(=O)NCC(=O)N[C@@H](CCCCN)C(=O)N1CCC[C@H]1C(=O)N[C@@H](Cc1ccccc1)C(=O)N[C@H](C(=O)N[C@@H](Cc1ccccc1)C(=O)O)C(C)C [VIR-400, LEAIPMSFPpEFLFGKPFVF] (H-LEAIPMSFP[dP]EFLFGKPFVF-OH) | 590 nM |  |
